According to patent US20210179655A1, “Prodrugs of a JAK Inhibitor Compound for Treatment of Gastrointestinal Inflammatory Disease” (THERAVANCE BIOPHARMA R&D IP, LLC, priority 2015, published 2021):
Each block holds one compound with its values, some of them ahead of it.

Columns and labels:
[1] = tested on: oxazolone-induced colitis; experiment: Mouse model of oxazolone-induced colitis; type: in vivo
Description: Oxazolone-induced colitis is an experimental model that has a histological resemblance to human ulcerative colitis (Heller et al. […], 2002, 17, 629-638). Adult BALB/C mice (25-28 g, 9-12 weeks of age) from BioNeeds (India) were used in the assay. On day 1, animals were lightly anesthetized with isoflurane and the hairs between the shoulder were carefully removed before oxazolone (6 mg/mouse, 100 μL, 4:1 acetone: olive oil formulation) or vehicle solution was slowly applied for skin sensitization. Six days after skin sensitization, the mice were fasted overnight, anesthetized with ketamine and xylazine administered IP, and a 1 mL syringe filled with oxazolone solution, was inserted carefully ˜3.8 cm into the colon of the mouse. Animals were kept in a head down position and oxazolone (0.5 mg/50 μL/mouse in 50% ethanol) or 50% ethanol/saline was rectally instilled very slowly over a minute. The mice were held vertically (head down) for another minute to ensure that the entire oxazolone solution remained inside the colon. Drug treatment (PO, BID or TID) or vehicle was initiated the evening prior to the oxazolone intrarectal (IR) challenge. On both first (Day 1) and second (Day 2) days post-oxazolone IR challenge, the Disease Activity Index (DAI) was assessed by treatment-blinded experimenters for each mouse, according to the following subscores: stool consistency (0, normal; 2, loose; 4, diarrhea), gross bleeding and hemoccult test (0, absence; 2, blood tinged; 4, overt blood presence), and weight loss (0, none; 1, 1%-5%; 2, 6%-10%; 3, 11%-15%; 4, more than 15%); DAI=average of (stool consistency+blood presence+weight loss scores).
An area-under-the-curve (AUC) calculation based on total DAI scores was performed to track disease progression during the course of the experiment. AUC for each experimental group was calculated as: AUC=[(Day 1−Day 0)*Average (DAI Score of Day 0 & Day 1)]+[(Day 2−Day 1)*Average (DAI Score of Day 1 & Day 2)]. A Student's t-test compared the DAI AUC score of the vehicle/vehicle and vehicle/oxazolone groups to evaluate whether disease was induced following oxazolone treatment. This was followed by a one way ANOVA, with Dunnett's post hoc test, to compare the DAI AUC score of the vehicle/oxazolone and test compound/oxazolone groups. Statistical significance was defined by an α level set at p<0.05.

[2] = Rat colon fecal homogenate stability; type: in vitro ADME; details: male, rat colon fecal homogenate supernatant, read-out: T½ (In vitro colonic stability, loss of pro-drug)
Description: The objective of this study was to determine the stability of the present compounds in rat colon fecal homogenate, i.e. the half-life for decomposition in the presence of the β-glucuronidase in rat colon feces.
Following sacrifice of a naïve male rat (˜300 g) by cardiac puncture exsanguination, the colon was ligated and removed to an anaerobic chamber (AS-580, Anaerobe Systems). The fecal content was removed within the chamber and was diluted 1:10 (1 gram to 9 mL phosphate buffer) and then homogenized using a handheld Omni Tissue Master. The fecal homogenate was centrifuged at 2000 g for 10 min to remove bulk and the supernatant was removed and used for the incubations.
Test articles and a positive control (sulfasalazine) were prepared as 10 mM DMSO stocks. The final substrate concentration of each assay was 10 μM (30 μM for compound 5). Reactions were started by adding a 5 μL aliquot of diluted test compound stock into 300 μL of rat fecal supernatant-homogenate. At 0, 15, 30, 60, 90, and 120 min post reaction initiation, a 50 μL aliquot was removed into 200 μL of acetonitrile with 3% formic acid and an internal standard molecule. All samples were centrifuged at 2000 g for 10 min after which 50 μL of supernatant was diluted into 150 μL of water for analysis on an LC-MS system. In vitro half-lives for loss of pro-drug were calculated as follows: (T½=0.693/elimination rate constant).

[3] = Metabolic stability of comparison compounds in rat colon content; type: in vitro ADME; details: 10 μM in rat colonic content, up to 120 min
Description: Colonic fecal content was harvested from a naïve male Sprague Dawley rat and was diluted 1:10 (1 gram to 9 mL phosphate buffer) and then homogenized using a handheld Omni Tissue Master. […] A 5 μL aliquot of diluted test compound was spiked into 300 μL of rat colonic content homogenate to begin the reaction at 37° C. Aliquots (50 μL) were removed from the incubation at the following time points (0, 15, 50, 85, and 120 min) and added into 200 μL of ACN with 3% formic acid and an internal standard molecule. […] All samples were centrifuged at 2000×g for 10 min after which 50 μL of supernatant was diluted into 150 μL of water and analyzed using a Thermo Q-Exactive LC-MS system. GraphPad Prism and Microsoft Excel were used to tabulate and plot the data.

splenic NK cells = experiment: Immunosuppression effects in mouse splenic natural killer (NK) cells; type: in vivo; details: mouse, oral dosing for three days
Description: Adult male Balb/C mice (12-14 weeks of age) from Harlan were used for the study. […] Spleens were harvested 30 min or 3 h post last dose and crushed immediately for cell subtype staining. Prior to fixation, fluorophore-labelled antibodies for CD19 (FITC; B cells), CD3e (PE; pan T cells) and DX5 (APC; NK cells) were incubated with splenocyte samples from each animal to allow for simultaneous, multiple subtype % analysis on the flow cytometer. The number of total spleen cells for each animal was measured by Scepter™ 2.0 Handheld Automated Cell Counter.
The absolute number of lymphocyte subtype population (e.g., splenic B, T and NK cells) was calculated from the percentage of each subtype times total spleen cells for each animal. A one way ANOVA, with Dunnett's post hoc test, was used to compare the splenic lymphocytes number of the vehicle and test compound groups. The a level was set at p<0.05. Data were presented as the mean SEM for each group.

- half-life at 10 μM [2]: 1 to 13 min
SMILES: C[C@@H]1CCN(C(=O)CC#N)C[C@@H]1N(C)c1ncnc2c1ccn2C(=O)N(C)CCN(C)C(=O)OCc1ccc(O[C@@H]2O[C@H](C(=O)O)[C@@H](O)[C@H](O)[C@H]2O)cc1 [Compound 4, (2S,3S,4S,5R,6S)-6-(4-((((2-(4-(((3R,4R)-1-(2-cyanoacetyl)-4-methylpiperidin-3-yl)(methyl)amino)-N-methyl-7H-pyrrolo[2,3-d]pyrimidine-7-carboxamido)ethyl)(methyl)carbamoyl)oxy)methyl)phenoxy)-3,4,5-trihydroxytetrahydro-2H-pyran-2-carboxylic acid]
- reversal of oxazolone-induced colitis (DAI AUC score) ([1]; separate experiment, 3, 10, and 30 mg/kg, PO, BID, similar magnitude to tofacitinib 30 mg/kg): significant reversal

- half-life at 30 μM ([2]; 30 μM): 6 min
SMILES: Cc1cc(COC(=O)N(C)CCN(C)C(=O)n2ccc3c(N(C)[C@H]4CN(C(=O)CC#N)CC[C@H]4C)ncnc32)ccc1O[C@@H]1O[C@H](C(=O)O)[C@@H](O)[C@H](O)[C@H]1O [Compound 5, (2S,3S,4S,5R,6S)-6-(4-((((2-(4-(((3R,4R)-1-(2-cyanoacetyl)-4-methylpiperidin-3-yl)(methyl)amino)-N-methyl-7H-pyrrolo[2,3-d]pyrimidine-7-carboxamido)ethyl)(methyl)carbamoyl)oxy)methyl)-2-methylphenoxy)-3,4,5-trihydroxytetrahydro-2H-pyran-2-carboxylic acid]

- half-life at 10 μM [2]: 7 min
SMILES: C[C@@H]1CCN(C(=O)CC#N)C[C@@H]1N(C)c1ncnc2c1ccn2C(=O)N(C)CCN(C)C(=O)OCc1ccc(O[C@@H]2O[C@H](C(=O)O)[C@@H](O)[C@H](O)[C@H]2O)c(Cl)c1 [Compound 6, (2S,3S,4S,5R,6S)-6-(2-chloro-4-((((2-(4-(((3R,4R)-1-(2-cyanoacetyl)-4-methylpiperidin-3-yl)(methyl)amino)-N-methyl-7H-pyrrolo[2,3-d]pyrimidine-7-carboxamido)ethyl)(methyl)carbamoyl)oxy)methyl)phenoxy)-3,4,5-trihydroxytetrahydro-2H-pyran-2-carboxylic acid]

- half-life at 10 μM [2]: 3 to 8 min
SMILES: COc1cc(COC(=O)N(C)CCN(C)C(=O)n2ccc3c(N(C)[C@H]4CN(C(=O)CC#N)CC[C@H]4C)ncnc32)ccc1O[C@@H]1O[C@H](C(=O)O)[C@@H](O)[C@H](O)[C@H]1O [Compound 7, (2S,3S,4S,5R,6S)-6-(4-((((2-(4-(((3R,4R)-1-(2-cyanoacetyl)-4-methylpiperidin-3-yl)(methyl)amino)-N-methyl-7H-pyrrolo[2,3-d]pyrimidine-7-carboxamido)ethyl)(methyl)carbamoyl)oxy)methyl)-2-methoxyphenoxy)-3,4,5-trihydroxytetrahydro-2H-pyran-2-carboxylic acid]

SMILES: CN(CCN(C)C(=O)OCc1ccc(O[C@@H]2O[C@H](C(=O)O)[C@@H](O)[C@H](O)[C@H]2O)c([N+](=O)[O-])c1)C(=O)Nc1ccc(O)c(C(=O)O)c1 [Compound C-1]
- generation of active metabolite from the pro-drug [3]: failed to generate any measurable amounts

SMILES: Cc1cc(S(C)(=O)=O)ncc1-c1ccc2c(c1)cc(-c1cncc(F)c1C)n2C(=O)N(C)CCN(C)C(=O)OCc1ccc(O[C@@H]2O[C@H](C(=O)O)[C@@H](O)[C@H](O)[C@H]2O)c([N+](=O)[O-])c1 [Compound C-2]
- generation of active metabolite from the pro-drug [3]: failed to generate any measurable amounts

SMILES: C[C@@H]1CCN(C(=O)CC#N)C[C@@H]1N(C)c1ncnc2[nH]ccc12 [Tofacitinib, 3-((3R,4R)-4-methyl-3-(methyl(7H-pyrrolo[2,3-d]pyrimidin-4-yl)amino)piperidin-1-yl)-3-oxopropanenitrile, reference compound]
- In vivo efficacy (oxazolone colitis), effective dose ([1]; Effective dose that exhibits a comparable pharmacological effect in the oxazolone model compared to its vehicle): 30 mg/kg
- Systemic functional activity (splenic NK depletion) (splenic NK cells): 10 mg/kg
